Data reported in PMC2728625 (Nature structural & molecular biology, 2009).
Marks after values point to notes of the source that are not given here.

Legend:
T7 DdRp WT = T7 DdRp WT (Escherichia phage T7, UniProt P00573); type: biochemical
PV RdRp WT [1] = biological target: T1, PV RdRp WT (Poliovirus type 1, UniProt P03300); details: cited from earlier work
T7 DdRp K631L = T7 DdRp K631L (Escherichia phage T7, UniProt P00573, K631L); type: biochemical
PV RdRp WT [2] = biological target: T1, PV RdRp WT; type: biochemical
PV RdRp WT [3] = biological target: T1, PV RdRp WT; type: biochemical; remark: listed apart in the source
[4] = read-out: Kd,app (apparent dissociation constant for nucleotide)

Chain of T7 DdRp WT (P00573 whole entry, looked up): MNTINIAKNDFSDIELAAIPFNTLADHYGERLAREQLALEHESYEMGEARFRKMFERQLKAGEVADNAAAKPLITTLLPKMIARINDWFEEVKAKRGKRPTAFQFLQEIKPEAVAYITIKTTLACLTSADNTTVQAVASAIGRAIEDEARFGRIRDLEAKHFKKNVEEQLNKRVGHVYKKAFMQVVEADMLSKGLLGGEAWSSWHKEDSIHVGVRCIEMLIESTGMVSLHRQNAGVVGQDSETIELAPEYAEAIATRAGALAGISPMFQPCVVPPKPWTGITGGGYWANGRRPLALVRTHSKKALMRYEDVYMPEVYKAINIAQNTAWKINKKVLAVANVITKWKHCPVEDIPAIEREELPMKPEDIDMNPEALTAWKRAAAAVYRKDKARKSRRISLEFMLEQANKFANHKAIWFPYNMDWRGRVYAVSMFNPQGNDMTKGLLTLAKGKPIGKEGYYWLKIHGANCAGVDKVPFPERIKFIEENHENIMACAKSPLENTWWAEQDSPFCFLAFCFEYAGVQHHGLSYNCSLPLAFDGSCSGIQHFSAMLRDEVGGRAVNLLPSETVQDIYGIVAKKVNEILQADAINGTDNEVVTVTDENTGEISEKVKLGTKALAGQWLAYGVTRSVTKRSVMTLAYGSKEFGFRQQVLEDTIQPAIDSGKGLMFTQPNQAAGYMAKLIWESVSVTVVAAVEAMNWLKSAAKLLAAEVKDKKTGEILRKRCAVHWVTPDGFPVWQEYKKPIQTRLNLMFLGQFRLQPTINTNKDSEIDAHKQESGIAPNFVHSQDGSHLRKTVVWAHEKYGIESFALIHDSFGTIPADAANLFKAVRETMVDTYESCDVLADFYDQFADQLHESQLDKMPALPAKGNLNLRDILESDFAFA
T1 sequence (P03300 1749-2209 limits assumed): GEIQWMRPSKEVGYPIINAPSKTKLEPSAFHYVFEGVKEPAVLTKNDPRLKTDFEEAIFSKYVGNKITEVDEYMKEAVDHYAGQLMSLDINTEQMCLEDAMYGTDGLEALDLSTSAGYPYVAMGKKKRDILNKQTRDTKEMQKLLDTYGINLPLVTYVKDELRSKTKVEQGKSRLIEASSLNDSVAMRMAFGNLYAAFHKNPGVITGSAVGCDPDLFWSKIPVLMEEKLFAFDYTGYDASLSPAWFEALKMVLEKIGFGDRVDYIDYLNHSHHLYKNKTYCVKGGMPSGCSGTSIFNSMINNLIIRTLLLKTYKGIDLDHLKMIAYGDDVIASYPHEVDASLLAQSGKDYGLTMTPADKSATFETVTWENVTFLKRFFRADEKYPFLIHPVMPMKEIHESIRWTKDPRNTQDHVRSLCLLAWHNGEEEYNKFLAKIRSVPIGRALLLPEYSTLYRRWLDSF
Chain of T7 DdRp K631L (P00573 whole entry K631L, looked up): as the sequence (P00573 whole entry, looked up) above, with K631L counted along it

Nc1ncnc2c1ncn2[C@@H]1O[C@H](COP(=O)(O)OP(=O)(O)OP(=O)(O)O)[C@@H](O)[C@H]1O [ATP]
PI (proton inventory: proton-transfer model that best fits) (T7 DdRp WT): 2 | SDKIE (solvent deuterium kinetic isotope effect) (T7 DdRp WT): 5.2 ± 0.5 | kpol (maximal rate constant for nucleotide incorporation) (T7 DdRp WT; pH 7.5): 60 ± 5 s⁻¹ | Kd (T7 DdRp WT; read-out: Kd,app (apparent dissociation constant for nucleotide), pH 7.5): 300 ± 30 µM | pKa from pH rate profile of kpol, second ionizable group (PV RdRp WT [1]): 10.5 | SDKIE (solvent deuterium kinetic isotope effect) (T7 DdRp K631L): 2.6 ± 0.5 ^c | kpol (maximal rate constant for nucleotide incorporation) (T7 DdRp K631L): 0.6 ± 0.1 s⁻¹ | reduction in kpol relative to wt (T7 DdRp K631L): 100 fold | Kd (T7 DdRp K631L; [4]): 50000 µM | PI (proton inventory: proton-transfer model that best fits) (PV RdRp WT [2]): 2 | SDKIE (solvent deuterium kinetic isotope effect) (PV RdRp WT [2]): 3.0 ± 0.3 | kpol (maximal rate constant for nucleotide incorporation) (PV RdRp WT [2]): 50 ± 5 s⁻¹ | Kd (PV RdRp WT [2]; [4]): 200 ± 20 µM | SDKIE (PV RdRp WT [3]): 7 ± 1
